From patent publication US8349309B2, “Polymeric coupling agents and pharmaceutically-active polymers made therefrom” (Interface Biologics Inc., priority 2004, dated 2013)

Test system: Pseudomonas aeruginosa
Assay: Macro-dilution minimum inhibitory concentration (MIC) assay
Assay type: cell-based
Experimental: Minimum inhibitory concentration (MIC) assays were used to evaluate the antimicrobial activity of incubating solutions obtained from drug polymer biodegradation studies against P. aeruginosa. Turbidity of each culture was recorded to evaluate the inhibitory properties of degradation solution of drug polymers.
The same NF polymer incubation solutions assayed via HPLC were also evaluated for antimicrobial activity using a biological assay. A macro-dilution minimum inhibitory concentration (MIC) assay was employed to determine the concentration of antimicrobial (norfloxacin) that would inhibit the growth of a pathogen often associated with device-related infections, Pseudomonas aeruginosa. […] Incubation solutions from both enzyme and buffer control treatment of NF polymer were used in a biological assay matrix that was designed to estimate the concentration of norfloxacin as a function of incubation time and treatment.

1-ethyl-6-fluoro-1,4-dihydro-4-oxo-7-piperazine-quinoline-3-carboxylic acid [norfloxacin]
MIC: 0.8 mu g/mL
